The results in this text go back to publication PMC8953583, “The Longitudinal Dividing Bacterium Candidatus Thiosymbion Oneisti Has a Natural Temperature-Sensitive FtsZ Protein with Low GTPase Activity” (International Journal of Molecular Sciences, 2022).

One series addresses T1, FtsZ^EC (Escherichia coli, UniProt P0A9A6).
T1 construct: purified FtsZ; purification not described in main text
T1 sequence (P0A9A6 1-383): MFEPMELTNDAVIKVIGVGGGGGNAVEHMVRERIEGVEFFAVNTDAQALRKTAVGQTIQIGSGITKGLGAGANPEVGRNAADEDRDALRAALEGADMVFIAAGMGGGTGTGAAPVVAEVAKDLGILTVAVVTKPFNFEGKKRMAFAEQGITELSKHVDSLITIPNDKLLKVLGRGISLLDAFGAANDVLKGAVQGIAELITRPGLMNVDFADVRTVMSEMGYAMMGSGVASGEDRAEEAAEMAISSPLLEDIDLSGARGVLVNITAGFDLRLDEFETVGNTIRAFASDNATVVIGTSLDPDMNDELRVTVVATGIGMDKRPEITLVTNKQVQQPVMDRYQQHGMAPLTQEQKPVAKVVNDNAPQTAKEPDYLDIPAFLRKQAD
The experiment in a line: GTPase assay (phosphate release). Type of series: biochemical. The conditions noted are these: comparison with FtsZ^TO; conditions in supplement.

Another series deals with T2, FtsZ^TO (Candidatus Thiosymbion oneisti, UniProt I3VI34, I207M).
T2 construct: untagged, expressed from pJW17 (pET11b) in E. coli BL21(DE3) pLysS; anion-exchange purified
T2 sequence (I3VI34 1-397 I207M): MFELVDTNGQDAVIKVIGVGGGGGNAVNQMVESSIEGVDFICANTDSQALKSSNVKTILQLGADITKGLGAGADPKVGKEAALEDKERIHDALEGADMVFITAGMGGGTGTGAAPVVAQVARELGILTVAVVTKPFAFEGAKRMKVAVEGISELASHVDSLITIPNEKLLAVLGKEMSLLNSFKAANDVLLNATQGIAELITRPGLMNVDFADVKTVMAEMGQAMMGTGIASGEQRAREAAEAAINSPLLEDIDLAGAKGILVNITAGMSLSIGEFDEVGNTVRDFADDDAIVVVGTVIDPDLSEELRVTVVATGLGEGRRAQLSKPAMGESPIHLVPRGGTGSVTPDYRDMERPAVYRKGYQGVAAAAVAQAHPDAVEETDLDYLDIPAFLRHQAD
The series is described as follows: Malachite green phosphate release GTPase assay. Type of series: biochemical. The conditions noted are these: 1 mM GTP, HEPES buffer pH 7.5 or MES buffer pH 6.5, 50 mM KCl, 5 mM MgCl2, 28 °C; T7 loop mutant.

Substrate in series [1]: Nc1nc2c(ncn2[C@@H]2O[C@H](COP(=O)(O)OP(=O)(O)OP(=O)(O)O)[C@@H](O)[C@H]2O)c(=O)[nH]1
The series is described as follows: Malachite green phosphate release GTPase assay, Michaelis-Menten fit. Type of series: biochemical, Candidatus Thiosymbion oneisti. The conditions noted are these: MES buffer pH 6.5, 50 mM KCl, 5 mM MgCl2, 28 °C, 5 μM FtsZ. The source says: Malachite green phosphate release GTPase assay, Michaelis-Menten fit on FtsZ^TO

Changes are numbered by the printed parent chain.

With `Nc1nc2c(ncn2[C@@H]2O[C@H](COP(=O)(O)OP(=O)(O)OP(=O)(O)O)[C@@H](O)[C@H]2O)c(=O)[nH]1` [GTP], the “GTPase assay (phosphate release)” value at FtsZ^EC is “FtsZ^TO showed a low GTPase activity compared to FtsZ^EC (Figure S4a)”. The “Malachite green phosphate release GTPase assay” value on FtsZ^TO is “Mutations I207M of the T7 loop and I273E of the H10 helix mutations reduced the GTPase”.

B1: FtsZ^TO (Candidatus Thiosymbion oneisti) (protein)
chain: T2 sequence (I3VI34 1-397 I207M) with M207I
notes: untagged, expressed from pJW17 (pET11b) in E. coli BL21(DE3) pLysS; anion-exchange purified
In the case of B1, in series [1], the Km was 550 ± 110 µM and the catalytic constant (kcat) was 0.00817 ± 0.000833 s⁻¹.

As a reminder, the Km is the concentration of substrate that gives half-maximal velocity. Broadly, the kcat is the number of substrate molecules converted per active site and unit of time at saturation.
